Test results reported in patent US20070275961A1, “Triazolo ' 1, 5-A ! Pyrimidines and Their Use in Medicine” (VERNALIS (CAMBRIDGE) LIMITED., priority 2003, published 2007).
Where two headings read alike, the source gives them in different places.

Columns and labels:
Type in all cases: biochemical
[1] = biological target: T1, Chk1 (Homo sapiens, UniProt O14757); experiment: Chk1 kinase assay, phosphorylation of Chktide (33P-ATP filtration); conditions: 0.01 mM ATP, read-out: Chk1 IC50
T1 sequence (O14757 1-476): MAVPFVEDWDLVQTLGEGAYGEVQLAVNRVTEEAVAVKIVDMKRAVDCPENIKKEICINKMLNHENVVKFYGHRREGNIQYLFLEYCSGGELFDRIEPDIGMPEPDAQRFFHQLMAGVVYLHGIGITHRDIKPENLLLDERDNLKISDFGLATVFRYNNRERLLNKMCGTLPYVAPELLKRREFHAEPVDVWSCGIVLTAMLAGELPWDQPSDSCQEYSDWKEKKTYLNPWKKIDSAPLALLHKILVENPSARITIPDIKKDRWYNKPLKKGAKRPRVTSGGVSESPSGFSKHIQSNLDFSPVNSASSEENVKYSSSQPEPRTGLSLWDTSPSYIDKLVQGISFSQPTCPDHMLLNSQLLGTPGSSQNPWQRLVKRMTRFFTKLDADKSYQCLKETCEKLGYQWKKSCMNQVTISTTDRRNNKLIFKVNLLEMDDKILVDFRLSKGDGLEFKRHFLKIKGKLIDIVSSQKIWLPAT
Experimental: Assays for the Chk1 kinase activity were carried out by monitoring the phosphorylation of a synthetic peptide Chktide with the amino acid sequence, […]. The assay mixture containing the inhibitor and Chk1 enzyme was mixed together in a microtiter plate in a final volume of 50 μl and incubated for 40 minutes at 30° C.
The assay mixture contained 0.01 mM unlabeled ATP, 0.5 μCi ^33P-γ-ATP, 30 μM Chktide, 0.1 mg/ml BSA, 50 mM Hepes-NaOH pH 7.5 and 11 nM GST-Chk1 enzyme. The reaction was stopped by adding 50 μl of 50 mM phosphoric acid. 90 μl of the mixture was transferred to a pre-wetted 96-well Multiscreen MAPHNOB filtration plate (Millipore) and filtered on a vacuum manifold. The filter plate was washed with three successive additions of 200 μl 50 mM phosphoric acid and then with 100 μl methanol. The filtration plate was dried for 10 min at 65° C., scintillant added and phosphorylated peptide quantified in a scintillation counter (Trilux, PerkinElmer).

[2] = biological target: T2, PDK1 enzyme (Homo sapiens, UniProt O15530); experiment: PDK1 3'-phosphoinositide-dependent kinase assay, phosphorylation of synthetic peptide (33P-ATP filtration); conditions: 0.01 mM ATP, read-out: PDK1 IC50
T2 sequence (O15530 1-556): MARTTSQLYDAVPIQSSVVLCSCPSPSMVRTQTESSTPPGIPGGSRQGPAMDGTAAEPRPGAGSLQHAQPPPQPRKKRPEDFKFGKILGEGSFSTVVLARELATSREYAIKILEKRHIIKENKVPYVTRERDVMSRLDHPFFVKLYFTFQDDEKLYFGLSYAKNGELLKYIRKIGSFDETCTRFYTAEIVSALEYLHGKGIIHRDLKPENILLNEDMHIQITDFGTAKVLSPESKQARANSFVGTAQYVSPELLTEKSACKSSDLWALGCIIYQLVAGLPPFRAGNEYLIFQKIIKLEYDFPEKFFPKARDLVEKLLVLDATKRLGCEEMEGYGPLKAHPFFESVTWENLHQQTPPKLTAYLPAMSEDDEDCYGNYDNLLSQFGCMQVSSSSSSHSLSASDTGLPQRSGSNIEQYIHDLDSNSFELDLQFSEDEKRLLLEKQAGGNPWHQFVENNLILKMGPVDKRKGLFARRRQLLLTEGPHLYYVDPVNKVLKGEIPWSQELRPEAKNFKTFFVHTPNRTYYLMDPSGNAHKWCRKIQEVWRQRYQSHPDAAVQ
Experimental: (§1) The assay mixture containing the inhibitor and PDK1 enzyme was mixed together in a microtiter plate in a final volume of 50 μl and incubated for 60 min at 30° C. The assay mixture contained 0.01 mM unlabeled ATP, 0.01 μCi/μl ^33P-γ-ATP, 0.075 mM peptide, 0.1 mg/ml BSA, 7.5 mM magnesium acetate, 0.05 M Tris.HCl, pH 7.5, 0.5% 2-mercaptoethanol. The reaction was stopped by adding 50 μl of 50 mM phosphoric acid. 90 μl of the mixture were transferred to a pre-wetted 96-well Multiscreen MAPHNOB filtration plate (Millipore) and filtered on a vacuum manifold. The filter plate was washed with three successive additions of 200 μl 50 mM phosphoric acid and then with 100 μl methanol. The filtration plate was dried for 10 min at 65° C., scintillant added and phosphorylated peptide quantified in a scintillation counter (Trilux, PerkinElmer).

[3] = biological target: CDK2 enzyme, complexed with cyclin A (Homo sapiens, UniProt P24941); experiment: CDK2 cyclin dependent kinase assay, phosphorylation of synthetic peptide […] (33P-ATP filtration); conditions: 0.1 mM ATP
Experimental: as §1, with “and CDK2 enzyme, complexed with cyclin A (0.4 U/ml)” for “and PDK1 enzyme”, “for 40” for “for 60”, “contained 0.1” for “contained 0.01”, “^33P-γ-ATP, 0.03” for “^33P-γ-ATP, 0.075”, “acetate, 50 mM HEPES-NaOH,” for “acetate, 0.05 M Tris.HCl,”, “pH 7.5.” for “pH 7.5, 0.5% 2-mercaptoethanol.”
HEPES is N-[2-hydroxyethyl]piperazine-N′-[2-ethanesulfonic acid]. BSA is bovine serum albumin.

SMILES | IC50 ([1]; Table 1) | IC50 ([2]; Table 1) | IC50 ([3]; Table 1) | IC50 ([1]; Table 2) | IC50 ([2]; Table 2) | IC50 ([3]; Table 2)
CS(=O)(=O)c1ccc(Nc2cc(Cl)nc3ncnn23)cc1 [Example 18] | > 200 µM | > 200 µM | 0.82 µM | – | – | –
NS(=O)(=O)c1ccc(Nc2cc(N3CCC(O)CC3)nc3ncnn23)cc1 [Example 19] | > 200 µM | > 200 µM | 0.99 µM | – | – | –
NS(=O)(=O)c1ccc(Nc2cc(N3CCCC3)nc3ncnn23)cc1 [Example 20] | > 200 µM | > 200 µM | 3.33 µM | – | – | –
NS(=O)(=O)c1ccc(Nc2cc(N3CCCC(CO)C3)nc3ncnn23)cc1 (stereo not drawn) [Example 23] | > 200 µM | > 200 µM | 0.33 µM | – | – | –
O=C(O)c1ccc(Nc2cc(Cl)nc3ncnn23)cc1 [Example 25] | > 200 µM | > 200 µM | 93.2 µM | – | – | –
CN(C)Cc1ccccc1-c1cc(Nc2cc(Cl)ccc2O)n2ncnc2n1 [Example 26] | 105 µM | > 200 µM | > 200 µM | – | – | –
Cc1cccc(-c2cc(Nc3ccc(C#N)cc3)n3ncnc3n2)c1 [Example 29] | > 200 µM | > 200 µM | 57.5 µM | – | – | –
NS(=O)(=O)c1ccc(Nc2ccnc3ncnn23)cc1 [Example 30] | 72 µM | > 200 µM | 33 µM | – | – | –
Oc1ccc(Cl)cc1Nc1cc(Cl)nc2ncnn12 [Example 32] | > 200 µM | > 200 µM | 31.6 µM | – | – | –
Clc1cccc(-c2cc(Nc3ccc4c(c3)OCO4)n3ncnc3n2)c1 [Example 33] | 23.9 µM | > 200 µM | 29 µM | – | – | –
NS(=O)(=O)c1ccc(CNc2cc(Cl)nc3ncnn23)cc1 [Example 38] | > 200 µM | > 200 µM | 15 µM | – | – | –
CCN(CC)CCNC(=O)c1ccc(Nc2cc(Cl)nc3ncnn23)cc1 [Example 39] | > 200 µM | > 200 µM | 42.8 µM | – | – | –
COc1ccc(Nc2cc(-c3cccc(Cl)c3)nc3ncnn23)cn1 [Example 40] | > 200 µM | > 200 µM | 8.29 µM | – | – | –
N#Cc1ccc(Nc2cc(Cl)nc3ncnn23)cc1 [Example 41] | > 200 µM | > 200 µM | 61.4 µM | – | – | –
COc1ccc(Nc2cc(Cl)nc3ncnn23)cn1 [Example 42] | > 200 µM | > 200 µM | 11.8 µM | – | – | –
O[C@H]1CC[C@H](Nc2cc(Cl)nc3ncnn23)CC1 [Example 43] | > 200 µM | > 200 µM | > 200 µM | – | – | –
NC(=O)c1ccc(Nc2cc(-c3cccc(F)c3)nc3ncnn23)cc1 [Example 45] | > 200 µM | > 200 µM | 12.3 µM | – | – | –
Clc1cc(Nc2ccc3cn[nH]c3c2)n2ncnc2n1 [Example 48] | > 200 µM | > 200 µM | 13.5 µM | – | – | –
NC(=O)c1ccc(Nc2cc(Cl)nc3ncnn23)cc1 [Example 49] | > 200 µM | > 200 µM | 24.1 µM | – | – | –
NS(=O)(=O)c1cccc(Nc2cc(Cl)nc3ncnn23)c1 [Example 52] | > 200 µM | > 200 µM | 40.9 µM | – | – | –
CCOC(=O)c1ccc(Nc2cc(Cl)nc3ncnn23)cc1 [Example 53] | > 200 µM | > 200 µM | > 200 µM | – | – | –
Clc1cc(NCc2ccncc2)n2ncnc2n1 [Example 56] | > 200 µM | > 200 µM | 43.3 µM | – | – | –
NS(=O)(=O)c1ccc(CNc2cc(OCC3CCCCC3)nc3ncnn23)cc1 [Example 57] | – | – | – | > 200 µM | > 200 µM | 18.7 µM
NS(=O)(=O)c1ccc(Nc2cc(NCC3CCCCC3)nc3ncnn23)cc1 [Example 59] | – | – | – | 117 µM | 118 µM | 3.86 µM
Oc1ccccc1-c1cc(Nc2ccc3cn[nH]c3c2)n2ncnc2n1 [Example 60] | – | – | – | > 200 µM | > 200 µM | 1.91 µM
C[Si](C)(C)CCOCn1ncc2ccc(Nc3cc(Cl)nc4ncnn34)cc21 [Example 61] | – | – | – | > 200 µM | > 200 µM | > 200 µM
CCOc1cc(Nc2ccc(S(N)(=O)=O)cc2)n2ncnc2n1 [Example 62] | – | – | – | > 200 µM | > 200 µM | 13 µM
CN1CCN(c2cc(Nc3ccc(S(C)(=O)=O)cc3)n3ncnc3n2)CC1 [Example 63] | – | – | – | > 200 µM | > 200 µM | 46.2 µM

Results, then the molecule that gave them:

IC50 ([1]; Table 1) | IC50 ([2]; Table 1) | IC50 ([3]; Table 1) | IC50 ([1]; Table 2) | IC50 ([2]; Table 2) | IC50 ([3]; Table 2) | SMILES
> 200 µM | > 200 µM | 59 µM | – | – | – | CN(C)c1ccc(Nc2cc(Cl)nc3ncnn23)cc1 [Example 21]
> 200 µM | > 200 µM | 36.7 µM | – | – | – | NC(=O)c1cccc(Nc2cc(Cl)nc3ncnn23)c1 [Example 22]
> 200 µM | > 200 µM | 15.7 µM | – | – | – | NS(=O)(=O)c1ccc(Nc2cc(N3CCOCC3)nc3ncnn23)cc1 [Example 24]
> 200 µM | > 200 µM | 14.3 µM | – | – | – | NS(=O)(=O)c1ccc(Nc2cc(-c3cccc(C(=O)O)c3)nc3ncnn23)cc1 [Example 27]
> 200 µM | > 200 µM | 18.6 µM | – | – | – | CCN(CC)CCNC(=O)c1ccc(Nc2cc(-c3cccc(C#N)c3)nc3ncnn23)cc1 [Example 28]
> 200 µM | > 200 µM | 4.91 µM | – | – | – | CC(C)C(CO)Nc1cc(Nc2ccc(S(N)(=O)=O)cc2)n2ncnc2n1 (stereo not drawn) [Example 31]
> 200 µM | > 200 µM | 0.62 µM | – | – | – | NS(=O)(=O)c1ccc(Nc2cc(N3CCCCC3)nc3ncnn23)cc1 [Example 34]
40.5 µM | 48 µM | 1.72 µM | – | – | – | NS(=O)(=O)c1ccc(Nc2cc(Nc3cccc(Cl)c3)nc3ncnn23)cc1 [Example 35]
> 200 µM | > 200 µM | 60.3 µM | – | – | – | NC(=O)c1sccc1Nc1cc(-c2ccsc2)nc2ncnn12 [Example 44]
> 200 µM | > 200 µM | > 200 µM | – | – | – | NC(=O)c1sccc1Nc1cc(Cl)nc2ncnn12 [Example 47]
> 200 µM | > 200 µM | 31.9 µM | – | – | – | CCOC(=O)c1ccc(Nc2cc(-c3cccc(O)c3)nc3ncnn23)cc1 [Example 50]
> 200 µM | > 200 µM | > 200 µM | – | – | – | COc1ccc(-c2cc(Nc3cccc(Cl)c3)n3ncnc3n2)nc1 [Example 54]
– | – | – | > 200 µM | > 200 µM | 13.6 µM | NS(=O)(=O)c1ccc(Nc2cc(NCc3ccccc3)nc3ncnn23)cc1 [Example 58]
